These results are taken from US9359367B2, “Tetrahydroquinazolinone derivatives as PARP inhibitors” (Lupin Limited, priority 2012, dated 2016).

As a reminder, the IC50 is the concentration needed to halve the response being measured.

SMILES strings stand for the structures.

T1 sequence (P09874 whole entry): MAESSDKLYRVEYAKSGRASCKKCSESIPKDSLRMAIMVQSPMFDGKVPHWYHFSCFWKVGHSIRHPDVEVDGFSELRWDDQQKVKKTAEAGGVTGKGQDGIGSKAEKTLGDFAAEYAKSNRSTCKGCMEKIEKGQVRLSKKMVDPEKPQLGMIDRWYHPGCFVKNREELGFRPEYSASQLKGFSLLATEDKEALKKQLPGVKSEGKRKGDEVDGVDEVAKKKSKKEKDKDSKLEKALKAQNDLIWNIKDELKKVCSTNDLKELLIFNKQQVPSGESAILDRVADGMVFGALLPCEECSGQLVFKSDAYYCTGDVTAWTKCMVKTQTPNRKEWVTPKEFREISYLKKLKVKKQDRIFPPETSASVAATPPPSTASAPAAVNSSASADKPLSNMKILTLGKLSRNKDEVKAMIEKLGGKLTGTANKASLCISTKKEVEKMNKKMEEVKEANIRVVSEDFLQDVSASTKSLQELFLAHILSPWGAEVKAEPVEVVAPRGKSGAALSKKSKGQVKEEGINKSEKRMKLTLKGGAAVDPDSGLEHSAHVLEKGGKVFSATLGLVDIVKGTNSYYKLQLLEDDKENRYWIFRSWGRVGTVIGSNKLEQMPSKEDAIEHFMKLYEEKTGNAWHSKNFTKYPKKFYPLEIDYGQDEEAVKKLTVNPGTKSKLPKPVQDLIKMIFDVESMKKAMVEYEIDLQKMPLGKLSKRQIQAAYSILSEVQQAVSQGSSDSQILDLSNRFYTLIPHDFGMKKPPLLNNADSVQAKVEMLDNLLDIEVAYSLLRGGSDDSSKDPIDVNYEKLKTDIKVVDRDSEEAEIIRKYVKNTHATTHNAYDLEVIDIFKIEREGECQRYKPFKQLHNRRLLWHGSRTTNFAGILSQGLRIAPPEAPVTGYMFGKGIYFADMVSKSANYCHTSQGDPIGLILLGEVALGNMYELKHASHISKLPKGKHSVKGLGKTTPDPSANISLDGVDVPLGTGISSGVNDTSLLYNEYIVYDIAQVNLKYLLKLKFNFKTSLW

This assay has as its target T1, PARP1 (Homo sapiens, UniProt P09874).
T1 construct: purchased BPS Bioscience
Put plainly: PARP1 Biochemical Assay (BPS Bioscience kit, chemiluminescence). The note with it: histone-coated plate, biotinilated NAD+, 25° C. for 60 min, luminescence, read-out: PARP 1 inhibition IC50. The essentials: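 Human PARP1 (25–75 ng/well) with activated DNA was incubated with compound on histone-coated wells. Biotinylated NAD+ was added and the reaction ran 60 min at 25 °C. Ribosylation was detected by streptavidin-HRP chemiluminescence, % inhibition was normalised to enzyme-free and uninhibited controls, and IC50 was fitted from % inhibition versus concentration.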
On to `COc1ccc(N2CCN([C@H]3C=C(c4nc5c(c(=O)[nH]4)CC4(CC5)CC4)CC3)CC2)cc1` [Compound 74, (R)-2′-(3-(4-(4-methoxyphenyl)piperazin-1-yl)cyclopent-1-en-1-yl)-7′,8′-dihydro-3′H-spiro[cyclopropane-1,6′-quinazolin]-4′(5′H)-one], for which the IC50 is 1 to 500 nM.

For `Cc1c(F)cccc1N1CCN([C@H]2C=C(c3nc4c(c(=O)[nH]3)CC3(CC4)CC3)CC2)CC1` [Compound 108, (R)-2′-(3-(4-(3-fluoro-2-methylphenyl)piperazin-1-yl)cyclopent-1-en-1-yl)-7′,8′-dihydro-3′H-spiro[cyclopropane-1,6′-quinazolin]-4′(5′H)-one], the IC50 lay in the range of 1 to 500 nM.

`CNC(=O)c1cccnc1N1CCN([C@H]2C=C(c3nc4c(c(=O)[nH]3)CC3(CC4)CC3)CC2)CC1` [Compound 131, (R)—N-methyl-2-(4-(3-(4′-oxo-4′,5′,7′,8′-tetrahydro-3′H-spiro[cyclopropane-1,6′-quinazolin]-2′-yl)cyclopent-2-en-1-yl)piperazin-1-yl)nicotinamide]: the IC50 lay in the range of 501 to 5000 nM.

Take `O=c1[nH]c(C2=C[C@H](N3CCN(c4ccc(-c5ccccc5)nc4)CC3)CC2)nc2c1CC1(CC2)CC1` [Compound 157, (R)-2′-(3-(4-(6-phenylpyridin-3-yl)piperazin-1-yl)cyclopent-1-en-1-yl)-7′,8′-dihydro-3′H-spiro[cyclopropane-1,6′-quinazolin]-4′(5′H)-one]: the IC50 was in the range of 501 to 5000 nM.

For `Cc1ccc(N2CCN([C@H]3C=C(c4nc5c(c(=O)[nH]4)CC4(CC5)CC4)CC3)CC2)cc1Cl` [Compound 82, (R)-2′-(3-(4-(3-chloro-4-methylphenyl)piperazin-1-yl)cyclopent-1-en-1-yl)-7′,8′-dihydro-3′H-spiro[cyclopropane-1,6′-quinazolin]-4′(5′H)-one], the IC50 is 1 to 500 nM.

On to `Cc1cc(F)ccc1N1CCN([C@H]2C=C(c3nc4c(c(=O)[nH]3)CC3(CC4)CC3)CC2)CC1` [Compound 95, (R)-2′-(3-(4-(4-fluoro-2-methylphenyl)piperazin-1-yl)cyclopent-1-en-1-yl)-7′,8′-dihydro-3′H-spiro[cyclopropane-1,6′-quinazolin]-4′(5′H)-one], for which the IC50 was 1 to 500 nM.

In the case of `O=c1[nH]c(C2=C[C@H](N3CCN(c4ccsc4)CC3)CC2)nc2c1CC1(CC2)CC1` [Compound 91, (R)-2′-(3-(4-(thiophen-3-yl)piperazin-1-yl)cyclopent-1-en-1-yl)-7′,8′-dihydro-3′H-spiro[cyclopropane-1,6′-quinazolin]-4′(5′H)-one], the IC50 was 1 to 500 nM.

Regarding `O=c1[nH]c([C@H]2CC[C@H](N3CCN(c4ccc(F)cc4)CC3)C2)nc2c1CC1(CC2)CC1` [Compound 149, 2′-((1S,3S)-3-(4-(4-fluorophenyl)piperazin-1-yl)cyclopentyl)-7′,8′-dihydro-3′H-spiro[cyclopropane-1,6′-quinazolin]-4′(5′H)-one], the IC50 lay within 1 to 500 nM.
